In patent publication US12478595B1, “Organoselenium compound for treating cancer” (IMAM MOHAMMAD IBN SAUD ISLAMIC UNIVERSITY, priority 2024, dated 2025):

Legend:
Format in all cases: cell-based
[1] = test system: normal oral epithelial cell line (OEC); assay: growth inhibition of OEC non-cancer cell line; details: read-out: growth inhibition percentage
[2] = test system: A549 (non-small cell lung cancer); assay: growth inhibition of A549 cancer cell line; details: Homo sapiens, A549, read-out: growth inhibition percentage
[3] = test system: HEPG2 (hepatocellular carcinoma); assay: growth inhibition of HEPG2 cancer cell line; details: Homo sapiens, HepG2, read-out: growth inhibition percentage
[4] = test system: HCT116 (colorectal carcinoma); assay: growth inhibition of HCT116 cancer cell line; details: Homo sapiens, HCT-116, read-out: growth inhibition percentage
[5] = test system: HN9 (human squamous cell carcinoma of the oral tongue); assay: growth inhibition of HN9 cancer cell line; details: read-out: growth inhibition percentage
[6] = test system: HuH7 (hepatocellular carcinoma); assay: growth inhibition of HuH7 cancer cell line; details: Homo sapiens, Huh-7, read-out: growth inhibition percentage
[7] = test system: A375 (melanoma cancer); assay: growth inhibition of A375 cancer cell line; details: Homo sapiens, A-375, read-out: growth inhibition percentage

SMILES: C[Se]c1ccc(NC(=O)NCC2(C)CC(NC(=O)Nc3ccc([Se]C)cc3)CC(C)(C)C2)cc1 (stereo not shown) [HB188, 1-(4-(methylselanyl)phenyl)-3-((1,3,3-trimethyl-5-(3-(4-(methylselanyl)phenyl)ureido)cyclohexyl)methyl)urea]
- inhibition at 100 µg/mL [1]: 32.7%
- inhibition at 100 µg/mL [2]: 74.4%
- inhibition at 100 µg/mL [3]: 76.2%
- inhibition at 100 µg/mL [4]: 85.3%
- inhibition at 100 µg/mL [5]: 74%
- inhibition at 100 µg/mL [6]: 88.6%
- inhibition at 100 µg/mL [7]: 66.8%
